Active and inactive are the calls of the source.
Legend:
Staphylococcus aureus [1] = assay: Antimicrobial activity against methicillin-sensitive Staphylococcus aureus ATCC 29213 in presence of >= 5 uM Ca2+; type: functional, organism-based
Acinetobacter baumannii [2] = assay: Antimicrobial activity against Acinetobacter baumannii 1710; type: functional, organism-based
A2058 [3] = assay: Cytotoxicity against human A2058 cells assessed as reduction in cell viability in presence of >= 5 uM Ca2+; type: functional, cell-based
Staphylococcus aureus [4] = assay: Antimicrobial activity against Staphylococcus aureus MB2865 in presence of >= 5 uM Ca2+; type: functional, organism-based
Acinetobacter baumannii [5] = assay: Antimicrobial activity against Acinetobacter baumannii MB5973 in presence of >= 5 uM Ca2+; type: functional, organism-based
HepG2 [6] = assay: Cytotoxicity against human HepG2 cells assessed as reduction in cell viability in presence of >= 5 uM Ca2+; type: functional, cell-based
Staphylococcus aureus [7] = assay: Antimicrobial activity against methicillin-resistant Staphylococcus aureus MB5393; type: functional, organism-based
A549 [8] = assay: Cytotoxicity against human A549 cells assessed as reduction in cell viability; type: functional, cell-based
Bacillus subtilis [9] = assay: Antimicrobial activity against Bacillus subtilis in presence of >= 5 mM Mg2+; type: functional, organism-based
Aspergillus niger [10] = assay: Antimicrobial activity against Aspergillus niger CBS 110271; type: functional, organism-based
Staphylococcus aureus [11] = assay: Antimicrobial activity against methicillin-resistant Staphylococcus aureus MB5393 in presence of >= 5 uM Ca2+; type: functional, organism-based
Streptomyces coelicolor [12] = assay: Antimicrobial activity against Streptomyces coelicolor A3 in presence of >= 5 uM Ca2+; type: functional, organism-based
Acinetobacter baumannii [13] = assay: Antimicrobial activity against Acinetobacter baumannii MB5973; type: functional, organism-based
Staphylococcus aureus [14] = assay: Antimicrobial activity against Staphylococcus aureus 1415-10; type: functional, organism-based
Staphylococcus aureus [15] = assay: Antimicrobial activity against methicillin-sensitive Staphylococcus aureus ATCC 29213; type: functional, organism-based
Bacillus subtilis [16] = assay: Antimicrobial activity against Bacillus subtilis in presence of >= 5 mM Ca2+; type: functional, organism-based
Acinetobacter baumannii [17] = assay: Antimicrobial activity against Acinetobacter baumannii 1799; type: functional, organism-based
Bacillus subtilis [18] = assay: Antimicrobial activity against Bacillus subtilis in presence of >= 5 mM Mn2+; type: functional, organism-based
Acinetobacter baumannii [19] = assay: Antimicrobial activity against Acinetobacter baumannii 1710 in presence of >= 5 uM Ca2+; type: functional, organism-based
Fusarium graminearum [20] = assay: Antimicrobial activity against Fusarium graminearum CBS 112.30; type: functional, organism-based
A549 [21] = assay: Cytotoxicity against human A549 cells assessed as reduction in cell viability in presence of >= 5 uM Ca2+; type: functional, cell-based
Streptomyces coelicolor [22] = assay: Antimicrobial activity against Streptomyces coelicolor A3; type: functional, organism-based
Staphylococcus aureus [23] = assay: Antimicrobial activity against Staphylococcus aureus MB2865; type: functional, organism-based
[24] = test system: Staphylococcus epidermidis; assay: Antimicrobial activity against Staphylococcus epidermidis in presence of >= 5 uM Ca2+; type: functional, organism-based
MIA PaCa-2 [25] = assay: Cytotoxicity against human MIA PaCa-2 cells assessed as reduction in cell viability; type: functional, cell-based
Streptococcus pneumoniae [26] = assay: Antimicrobial activity against Streptococcus pneumoniae ATCC 46619 in presence of >= 5 uM Ca2+; type: functional, organism-based
Streptococcus pneumoniae [27] = assay: Antimicrobial activity against Streptococcus pneumoniae ATCC 46619; type: functional, organism-based
[28] = test system: Staphylococcus epidermidis; assay: Antimicrobial activity against Staphylococcus epidermidis; type: functional, organism-based
MIA PaCa-2 [29] = assay: Cytotoxicity against human MIA PaCa-2 cells assessed as reduction in cell viability in presence of >= 5 uM Ca2+; type: functional, cell-based
Aspergillus niger [30] = assay: Antimicrobial activity against Aspergillus niger CBS 110271 in presence of >= 5 uM Ca2+; type: functional, organism-based
Staphylococcus aureus [31] = assay: Antimicrobial activity against Staphylococcus aureus 1415-10 in presence of >= 5 uM Ca2+; type: functional, organism-based
Acinetobacter baumannii [32] = assay: Antimicrobial activity against Acinetobacter baumannii 1799 in presence of >= 5 uM Ca2+; type: functional, organism-based
Saccharomyces cerevisiae [33] = assay: Antimicrobial activity against Saccharomyces cerevisiae BY4742; type: functional, organism-based
Fusarium graminearum [34] = assay: Antimicrobial activity against Fusarium graminearum CBS 112.30 in presence of >= 5 uM Ca2+; type: functional, organism-based
HepG2 [35] = assay: Cytotoxicity against human HepG2 cells assessed as reduction in cell viability; type: functional, cell-based
A2058 [36] = assay: Cytotoxicity against human A2058 cells assessed as reduction in cell viability; type: functional, cell-based
Bacillus subtilis [37] = assay: Antimicrobial activity against Bacillus subtilis in presence of >= 5 mM Zn2+; type: functional, organism-based
Saccharomyces cerevisiae [38] = assay: Antimicrobial activity against Saccharomyces cerevisiae BY4742 in presence of >= 5 uM Ca2+; type: functional, organism-based

Measured: Activity

CC[C@H](C)[C@H](NC(=O)[C@H](CC(N)=O)NC(=O)/C=C\C=C\CCC(C)C)C(=O)N[C@H](Cc1ccccc1)C(=O)N[C@H](CC(=O)O)C(=O)N[C@@H](CC(=O)O)C(=O)N[C@@H]1C(=O)N(C)[C@H](C(C)C)C(=O)NCC(=O)NCC(=O)N[C@H](CCC(=O)O)C(=O)N[C@@H](C)C(=O)N2CCC[C@H]2C(=O)O[C@@H]1C
inactive: all assays above

CC[C@H](C)[C@H](NC(=O)[C@H](CC(N)=O)NC(=O)/C=C\C=C\CCC(C)C)C(=O)N[C@H](Cc1ccccc1)C(=O)N[C@H](CS(=O)(=O)O)C(=O)N[C@@H](CC(=O)O)C(=O)N[C@@H]1C(=O)N(C)[C@H](C(C)C)C(=O)NCC(=O)NCC(=O)N[C@H](CCC(=O)O)C(=O)N[C@@H](C)C(=O)N2CCC[C@H]2C(=O)O[C@@H]1C
inactive: all assays above

Reference: ChEMBL document CHEMBL4665746, “Viennamycins: Lipopeptides Produced by a Streptomyces sp” (J Nat Prod, 2020)
